Assays:
[1] = system: Mus musculus; experiment: Antinociceptive activity in sc dosed mouse; format: functional
[2] = target: Mu-type opioid receptor (Homo sapiens) (UniProt P35372); conditions: CHO
Sequence of Mu-type opioid receptor (Homo sapiens) (P35372 whole entry): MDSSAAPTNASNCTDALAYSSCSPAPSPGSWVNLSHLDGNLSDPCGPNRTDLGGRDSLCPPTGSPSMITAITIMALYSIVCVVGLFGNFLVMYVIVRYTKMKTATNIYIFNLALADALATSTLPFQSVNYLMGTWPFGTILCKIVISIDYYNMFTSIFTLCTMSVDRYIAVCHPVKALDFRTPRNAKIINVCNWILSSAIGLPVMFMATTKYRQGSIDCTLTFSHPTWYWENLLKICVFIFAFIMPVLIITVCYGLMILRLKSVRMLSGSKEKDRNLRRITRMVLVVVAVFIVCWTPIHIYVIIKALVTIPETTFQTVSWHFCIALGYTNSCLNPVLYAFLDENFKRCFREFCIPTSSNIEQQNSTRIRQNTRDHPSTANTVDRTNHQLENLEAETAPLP
Description: Antagonist activity at human mu receptor expressed in CHO cells membrane assessed as inhibition of DAMGO-induced [35S]GTPgammaS binding after 3 hrs by liquid scintillation counting

Structure (SMILES)	ED50 [1] [mg/kg]	ED50 [2] [nM]	Ke [2] [nM]
CN1CC[C@]23c4c5ccc(O)c4O[C@H]2[C@@H](O)C=C[C@@]3(O)[C@H]1C5	2.9	–	–
CN1CC2(OCCO2)[C@]2(c3cccc(O)c3)CCC[C@H]1C2 (racemic)	–	89	154
Oc1cccc([C@@]23CCC[C@@H](C2)N(CCc2ccccc2)C[C@H]3O)c1 (racemic)	–	–	12
CN1CC[C@]23c4c5ccc(O)c4O[C@H]2[C@@H](O)CC[C@H]3[C@H]1C5 [DIHYDROMORPHINE]	1.8	–	–
CN1CC[C@]23c4c5ccc(O)c4O[C@H]2[C@@H](O)CC[C@@]3(O)[C@H]1C5 [HYDROMORPHINOL]	1.1	–	–
